Source: patent publication US11998619B2, “Compound, antiinflammatory drug comprising the compound and cyclooxygenase-2 inhibitor comprising the compound” (priority 2018, dated 2024)

What was measured:
[1] = system: COX-2; experiment: Western blotting of COX-2 expression after LPS treatment; assay type: cell-based; settings: Western blot, FIG. 4
[2] = system: COX-2; experiment: Immunofluorescence of COX-2 in LPS-treated cells; settings: FIG. 3
Description: Anti-inflammatory properties were evaluated based on in vitro experiments. Specifically, cells were treated with lipopolysaccharide (LPS) as an inflammation-inducing substance, thereby to induce an inflammatory reaction. […] Then, immunofluorescence images thereof were taken to identify COX-2 inhibitory ability thereof in the cells.
The green fluorescence indicates the presence of COX-2 which is induced by an inflammatory reaction in cells via treatment with LPS.

[3] = system: MCAO-R stroke animal model; experiment: Cerebral infarction in MCAO-R stroke animal model (TTC staining); assay type: in vivo, Sprague Dawley (SD) rats; settings: 24 hours after reperfusion; FIG. 5B
[4] = system: cyclooxygenase-2 (COX-2); experiment: Western blot of COX-2 in tissue at the cerebral infarction site, MCAO-R model; assay type: in vivo, Sprague Dawley (SD) rats; settings: FIG. 5C

Compound | COX-2 expression inhibition (COX-2 band) [1] | COX-2 inhibitory ability (green fluorescence, COX-2 positive cells) [2] | inhibition of cerebral infarction [3] | inhibition of COX-2 protein amount at cerebral infarction site [4]
CC1=C(CC(=O)O)c2cc(F)ccc2/C1=C\c1ccc([S+](C)[O-])cc1 (stereo not shown) [sulindac] | has COX-2 inhibition ability | excellent COX-2 inhibition ability | – | –
O=C(O)c1cc(-c2ccc(F)cc2F)ccc1O [diflunisal] | do not achieve COX-2 inhibition effect | slightly lower than that in cells (LPS) treated with only LPS | significantly inhibit the cerebral infarction | exhibit inhibition of COX-2 activity
O=C(O)CCC(=O)c1ccc(-c2ccccc2)cc1 [fenbufen] | do not achieve COX-2 inhibition effect | – | – | –
